Reference: patent US10676474B2, “1,6-naphthyridine derivatives as CDK4/6 inhibitor” (CSTONE PHARMACEUTICALS, priority 2016, dated 2020)
Converted amounts (≈) assume the structure as drawn. Where two headings read alike, the source gives them in different places.

Assays:
physchem = details: pH 7.4, aqueous buffer, kinetic from dmso stock
[1] = Metabolic stability in human liver microsomes; assay type: in vitro ADME; details: 0.5 mg/mL protein, read-out: Human T1/2
Description: (§1) This assay is used to test the metabolic stability of tested substances in rats, mice and human liver microsomes.
(§2) 1) The tested compound with concentration of 1 μM was co-incubated with liver microsomes with a protein concentration of 0.5 mg/mL under a reducing coenzyme II regeneration system in a 37° C. water bath.
(§3) 2) The positive controls include: testosterone (3A4 substrate), propafenene (2D6 substrate) and diclofenac (2C9 substrate). The incubation condition of the positive controls was consistent with that of the compound.
(§4) 3) The reaction time points were: 0, 5, 10, 20, 30 and 60 minutes, and the reaction is terminated at the corresponding time point using a termination solution containing an internal standard. The compounds were also incubated with microsomes for 60 minutes without a reducing coenzyme II regeneration system and served as a negative control.
(§5) 4) Each time point was a single point (n=1).
(§6) 5) The sample was determined by LC/MS/MS, and the compound concentration was shown as the ratio of the peak area of the compound to the peak area of the internal standard (non-standard).
(§7) 6) In the project report summary, the half-life and the clearance rate would be calculated.

[2] = Metabolic stability in rat liver microsomes; assay type: in vitro ADME; details: 0.5 mg/mL protein, read-out: Rats T1/2
Description: as §1, §2, §3, §4, §5, §6, §7

[3] = Thermodynamic solubility test (shake-flask, HPLC); assay type: physicochemical; details: phosphate buffer, aqueous buffer, thermodynamic from solid; pH = 7.4, Table 3-2; read-out: Thermodynamic solubility
Description: The thermodynamic solubility of the compounds was determined by the shake-flask method and HPLC. The solubility of the compounds is an important property that affects drug screening of compounds and the absorption of compounds in animals and humans. A saturated solution of the compound was first given and quantitatively tested by HPLC to obtain the solubility of the compound.
50 mM phosphate buffer solution, pH 7.4.
Not less than 2 mg of the sample powder was weighed into a vial of Whatman miniuniprep. If test of the thermodynamic solubility of a sample in multiple buffer solutions is required, an individual vial is required for each test.
450 μL of the buffer solution (pH 7.4) was added to each Whatman miniuniprep vial.
After the addition of the buffer solution, the Whatman miniuniprep cap with a filter was mounted and pressed above the liquid level so that the filter could contact with the buffer solution during shaking.
And the observation of the solution was recorded.
It was shaked at 550 RPM for 24 hours at room temperature (about 22 to 25° C.).
The Whatman Miniunipreps filter cap was pressed to the bottom to give the filtrate of the sample solubility solution. All sample vials should be filtered before and after insoluble substances and their leakage.
The buffer was diluted 50 folds to give a sample diluent.
Three UV standards from low to high concentration were injected into HPLC, followed by the injection of the dilutions and supernatants of the tested compounds. The tested sample was injected twice.

[4] = it has been reported; cited from earlier work
Caco-2 cells [5] = tested on: Caco-2 cells
[6] = tested on: non-small cell lung cancer NCI-H358 model; assay: In vivo pharmacodynamic study (2), NCI-H358 model, tumor volume; set-up: species or system BALB/c nude mice; details: 60 mg/kg orally daily, Table 6-1
Description: (§8) The in vivo pharmacodynamic experiments were performed on the BALB/c nude mice implanted subcutaneously with the non-small cell lung cancer NCI-H358 model.
(§9) All of the cages, beddings and water were disinfected before use. All of the animals were permitted free access to a standard certified commercial laboratory diet. A total of 86 mice purchased from Vital River Laboratory Animal Co., LTD, Beijing were used for the study. The animal information of the experiments in Example 34 was as follows: BALB/c nude mice, female, 6-8 weeks, weighing approximately 16-18 g, were placed in a single ventilated cage (4 mice per cage) under a special pathogen free environment. All of the cages, beddings and water were disinfected before use. All of the animals were permitted free access to a standard certified commercial laboratory diet. A total of 56 mice purchased from Shanghai Lingchang Biotechnology Co., Ltd. were used for the study.
(§10) Each mouse was implanted subcutaneously with NCI-H358 tumor cells in the right back for tumor growth. The dosing initiated when the average tumor volume reached about 100-200 mm^3. […] The tumor volume was measured twice a week using a two-dimensional caliper, and the volume was measured in mm^3, calculated by the following the formula: V=0.5 a×b^2, wherein, a and b were the long and short diameters of the tumor, respectively. The antitumor efficacy was determined by dividing the average increase in the tumor volume of the animals treated with the compound by the average increase in the tumor volume of the untreated animals, and the safety of the compound was determined by the change in the body weight of the animal treated with the compound.
TGI: Tumor Growth Inhibition.

[7] = tested on: LU-01-0393 lung cancer patient-derived tumor tissue xenograft (PDX); assay: In vivo pharmacodynamic study (1), LU-01-0393 PDX; set-up: species or system BALB/c nude mice; details: 120 mg/kg orally daily
Description: The in vivo pharmacodynamic experiments were performed on the BALB/c nude mice implanted subcutaneously with the LU-01-0393 lung cancer patient-derived tumor tissue xenograft (PDX).
BALB/c nude mice, female, 6-8 weeks, weighing approximately 17-21 g, were placed in a single ventilated cage (5 mice per cage) under a special pathogen free environment. All of the cages, beddings and water were disinfected before use. All of the animals were permitted free access to a standard certified commercial laboratory diet. A total of 36 mice purchased from Vital River Laboratory Animal Co., LTD, Beijing were used for the study. Each mouse was implanted subcutaneously with a tumor LU-01-0393 FP4 section (20-30 mm^3) in the right back for tumor growth. The dosing initiated when the average tumor volume reached about 150-200 mm^3. The tumor volume was measured twice a week using a two-dimensional caliper, and the volume was measured in mm^3, calculated by the following the formula: V=0.5 a×b^2, wherein, a and b were the long and short diameters of the tumor, respectively. The antitumor efficacy was determined by dividing the average increase in the tumor volume of the animals treated with the compound by the average increase in the tumor volume of the untreated animals.

NCI-H358 cells = assay: Cell viability assay NCI-H358 (CellTiter-Glo); assay type: cell-based; details: Homo sapiens, 168 h; NCI-H358, incubated for 7 days
Description: The NCI-H358 cell line is from the cell bank of the Department of Biology of WuXi Apptec Co. Ltd. Envision Multi-Label Analyzer (PerkinElmer).
1) 100 μL of phosphate buffer solution was added to the peripheral wells of the 384-well plate and 40 μL of NCI-H358 cell suspension was added to the other wells containing 250 NCI-H358 cells. The cell plate was then placed in a carbon dioxide incubator and incubated overnight.
2) A 3-fold gradient dilution was subjected to the tested compounds using Echo. Each compound was diluted by 10 concentration gradients (diluted from 25 μM to 1.27 nM), 100 nL of which was added to the corresponding wells of the cell plate. The cell plate was then placed in a carbon dioxide incubator and incubated for 7 days.
3) 20 μL of Promega CellTiter-Glo reagent was added to each well of the cell plate, and shaken for 10 minutes away from light at room temperature to stabilize the luminescence signal. Readings were performed using a PerkinElmer Envision Multi-label Analyzer.
Table 1 provides the inhibitory activity of the compounds of the present invention against the proliferation of H358 cells.

[8] = Metabolic stability in mouse liver microsomes; assay type: in vitro ADME; details: 0.5 mg/mL protein, read-out: Mice T1/2
Description: as §1, §2, §3, §4, §5, §6, §7

[9] = In vivo pharmacodynamic study (2), NCI-H358 model, animal weight; set-up: species or system BALB/c nude mice; details: 60 mg/kg orally daily
Description: as §8, §9, §10

Caco-2 cells [10] = assay: Two-way permeability evaluation assay of Caco-2 cells; details: Caco-2

Row | SMILES | half-life at 1 μM [1] [min] | half-life at 1 μM [2] [min] | Category Efflux transporter substrate (Caco-2 cells [5]) | Gross tumor volume, 0 day [6] [mm^3] | Gross tumor volume, 7 days [6] [mm^3] | Gross tumor volume, 14 days [6] [mm^3] | Gross tumor volume, 17 days [6] [mm^3] | half-life at 1 μM [8] [min] | Changes in animal weight, 0 days [9] [%] | Changes in animal weight, 7 days [9] [%] | Changes in animal weight, 14 days [9] [%] | Changes in animal weight, 17 days [9] [%] | also measured
1 | CC(=O)c1c(C)c2cnc(Nc3ccc(N4CCNCC4)cn3)nc2n(C2CCCC2)c1=O [Palbociclib] | 44.7 | 47.8 | Highly | 152 | 137 | 107 | 104 | 53.3 | 0.0 | 1.0 | 0.9 | 0.7 | solubility kinetic at 24 h (physchem): 103 µM (≈ 46.1 µg/mL); solubility thermodynamic at 24 h [3]: 65.3 µM (≈ 29.2 µg/mL); brain permeability [4]: poor; Category Permeability (Caco-2 cells [5]): Low; Gross tumor volume Day 0 ([7]; Day 0): 145 mm^3; Gross tumor volume Day 7 ([7]; Day 7): 173 mm^3; Gross tumor volume Day 14 ([7]; Day 14): 179 mm^3; Gross tumor volume Day 20 ([7]; Day 20): 188 mm^3; IC50 (NCI-H358 cells): 314 nM
2 | CCN1CCN(Cc2ccc(Nc3ncc(F)c(-c4cc(F)c5nc(C)n(C(C)C)c5c4)n3)nc2)CC1 [LY2835219, Abemaciclib] | 2.69 | 6.34 | Possible | 152 | 97 | 73 | 60 | 2.36 | 0.0 | −2.9 | −3.5 | −3.5 | Category Permeability (Caco-2 cells [10]): Medium
